Experimental data from US12448390B1, “Compound with α-glucosidase inhibitory activity and application thereof” (priority 2024, dated 2025).

Target: a-glucosidase (Saccharomyces cerevisiae, UniProt P53341)
Assay type: biochemical
Settings: 0.5 U/ml enzyme, 0.6 mM pNaGP, pH 6.8, 37° C.; for Inhibition rate %: compound at 250 μmol/L; for IC50: gradient 500 to 7.8125 μmol/L
Procedure: An in vitro a-glucosidase activity assay was used for activity determination:
the compounds were weighed separately, and dissolved in dimethylsulfoxide (DMSO) to prepare 250 μmol/L of a reagent for a subsequent experiment. In short, a-glucosidase solution with a final concentration of 0.5 U/ml was reacted with 250 μmol/L of the compound and 0.6 mM of pNaGP solution in 0.1 mM, pH 6.8 phosphate buffer solution, to determine the inhibitory effect of the compound on an a-glucosidase conversion substrate. […] 250 μmol/L (10 μL) of the compound, enzyme solution (40 μL), and potassium phosphate buffer solution (100 μL) were pre-incubated in a 96-well plate at 37° C. for 10 min. Then, 50 μL of the substrate (pNaGP, 0.6 mM) was added to each micropore, it was incubated at 37° C. for 20 min, the absorbance was measured at 405 nm, and changes in enzyme activity were detected.
The formula for calculating the enzyme inhibitory activity of the compound tested was as follows:
The in vitro a-glucosidase activity assay was used for activity determination:
after the compounds were weighed separately, it was dissolved in DMSO to prepare 1 mmol/L of mother solution, and it was diluted in gradient to 500 μmol/L, 250 μmol/L, 125 μmol/L, 62.5 μmol/L, 31.25 μmol/L, 15.625 μmol/L and 7.8125 μmol/L. The different concentrations of the compounds (10 μL), 0.5 U/ml of enzyme solution (40 μL), and 0.1 mM, pH 6.8 phosphate buffer solution (100 μL) were pre-incubated in the 96-well plate at 37° C. for 10 min. Then, 50 μL of the substrate (pNaGP, 0.6 mM) was added to each micropore, it was incubated at 37° C. for 20 min, the absorbance was measured at 405 nm, and changes in enzyme activity were detected.

Chain of a-glucosidase (P53341 whole entry): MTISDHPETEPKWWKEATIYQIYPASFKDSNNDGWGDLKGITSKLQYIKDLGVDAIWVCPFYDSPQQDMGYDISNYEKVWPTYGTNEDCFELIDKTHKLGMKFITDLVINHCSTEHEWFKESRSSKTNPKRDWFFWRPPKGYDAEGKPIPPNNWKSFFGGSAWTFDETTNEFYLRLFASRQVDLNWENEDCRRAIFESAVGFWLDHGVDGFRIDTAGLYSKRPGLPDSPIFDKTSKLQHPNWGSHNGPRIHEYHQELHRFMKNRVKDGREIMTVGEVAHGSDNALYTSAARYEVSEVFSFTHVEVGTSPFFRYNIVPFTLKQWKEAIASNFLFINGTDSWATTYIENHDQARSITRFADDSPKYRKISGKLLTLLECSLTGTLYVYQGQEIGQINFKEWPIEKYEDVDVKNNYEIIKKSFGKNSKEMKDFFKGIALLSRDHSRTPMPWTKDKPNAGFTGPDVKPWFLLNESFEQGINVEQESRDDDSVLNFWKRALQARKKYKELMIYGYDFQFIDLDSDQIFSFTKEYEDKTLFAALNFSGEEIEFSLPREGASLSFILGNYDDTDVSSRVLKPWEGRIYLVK

Row | SMILES | Inhibition rate % | IC50
1 | Cc1ncc(CO)c2cc(C(=O)Nc3ccc(F)cc3)c(=Nc3cccc(C(F)(F)F)c3)oc12 [GFY-1] | 23.042% | –
2 | Cc1ncc(CO)c2cc(C(=O)Nc3ccc(F)cc3)c(=Nc3ccc(C(F)(F)F)cc3)oc12 [GFY-2] | 13.832% | –
3 | COc1cccc(N=c2oc3c(C)ncc(CO)c3cc2C(=O)Nc2ccc(F)cc2)c1 [GFY-4] | 30.769% | –
4 | Cc1ncc(CO)c2cc(C(=O)Nc3ccc(F)cc3)c(=Nc3cc(O)cc(CO)c3)oc12 [GFY-7] | 45.254% | –
5 | Cc1ncc(CO)c2cc(C(=O)Nc3ccc(F)c(F)c3)c(=Nc3cc(O)cc(CO)c3)oc12 [GFY-13] | 13.978% | –
6 | Cc1ncc(CO)c2cc(C(=O)Nc3ccc(F)c(Cl)c3)c(=Nc3cccc(CO)c3)oc12 [GFY-16] | 89.604% | 140 µM
7 | Cc1ncc(CO)c2cc(C(=O)Nc3ccc(F)c(Cl)c3)c(=Nc3cc(O)cc(CO)c3)oc12 [GFY-17] | 31.045% | –
8 | Cc1ncc(CO)c2cc(C(=O)Nc3ccc(F)cc3)c(=Nc3ccc(F)cc3)oc12 [GFY-20] | 95.56% | 20.1 µM
9 | Cc1ncc(CO)c2cc(C(=O)Nc3ccc(F)cc3)c(=Nc3cc(F)cc(F)c3)oc12 [GFY-21] | 99.916% | 43.1 µM
10 | Cc1ncc(CO)c2cc(C(=O)Nc3ccc(F)cc3)c(=Nc3ccc(F)c(F)c3)oc12 [GFY-22] | 86.819% | 37 µM
11 | Cc1ncc(CO)c2cc(C(=O)Nc3ccc(F)c(Cl)c3)c(=Nc3ccc(F)cc3)oc12 [GFY-23] | 22.127% | –
12 | Cc1ncc(CO)c2cc(C(=O)Nc3ccc(F)c(Cl)c3)c(=Nc3cc(F)cc(F)c3)oc12 [GFY-24] | 99.833% | 16.6 µM
13 | Cc1ncc(CO)c2cc(C(=O)Nc3ccc(F)c(Cl)c3)c(=Nc3ccc(F)c(F)c3)oc12 [GFY-25] | 69.628% | –
14 | Cc1ncc(CO)c2cc(C(=O)Nc3ccc(F)c(Cl)c3)c(=Nc3ccc(Cl)cc3)oc12 [GFY-26] | 62.651% | –
15 | Cc1ncc(CO)c2cc(C(=O)Nc3ccc(F)c(Cl)c3)c(=Nc3cc(Br)cc(Br)c3)oc12 [GFY-27] | 56.656% | –
16 | Cc1ncc(CO)c2cc(C(=O)Nc3ccc(F)c(Cl)c3)c(=Nc3ccc(Br)c(Br)c3)oc12 [GFY-28] | 64.035% | –
17 | Cc1ncc(CO)c2cc(C(=O)Nc3ccc(F)cc3)c(=Nc3cc(Br)cc(Br)c3)oc12 [GFY-29] | 94.686% | 27 µM
